We go through 15 compounds from patent US8987256B2, “Oxo-heterocyclic substituted carboxylic acid derivatives and the use thereof” (Bayer Intellectual Property GmbH, priority 2008, dated 2015).

One assay concerns the target T1, soluble guanylate cyclase (sGC) (Rattus norvegicus, UniProt P20595).
T1 construct: made in house; host or cells: baculovirus/Sf9 insect cells
T1 sequence (P20595 1-619): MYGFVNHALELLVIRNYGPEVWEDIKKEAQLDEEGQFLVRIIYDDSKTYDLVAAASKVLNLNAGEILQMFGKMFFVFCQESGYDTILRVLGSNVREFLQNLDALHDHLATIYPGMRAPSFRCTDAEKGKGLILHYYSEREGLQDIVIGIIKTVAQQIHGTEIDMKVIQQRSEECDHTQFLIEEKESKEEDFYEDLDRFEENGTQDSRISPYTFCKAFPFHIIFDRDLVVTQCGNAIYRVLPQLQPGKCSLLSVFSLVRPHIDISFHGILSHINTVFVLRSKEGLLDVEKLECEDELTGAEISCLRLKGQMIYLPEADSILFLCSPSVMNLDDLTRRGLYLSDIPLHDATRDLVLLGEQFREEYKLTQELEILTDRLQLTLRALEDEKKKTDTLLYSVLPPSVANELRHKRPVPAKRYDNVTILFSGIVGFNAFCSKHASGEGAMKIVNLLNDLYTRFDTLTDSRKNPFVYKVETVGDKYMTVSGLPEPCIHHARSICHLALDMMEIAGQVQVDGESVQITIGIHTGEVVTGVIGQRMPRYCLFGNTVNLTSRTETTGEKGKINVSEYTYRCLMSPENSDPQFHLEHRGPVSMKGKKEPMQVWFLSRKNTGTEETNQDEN
T1 sequence (P19686 1-690 partner): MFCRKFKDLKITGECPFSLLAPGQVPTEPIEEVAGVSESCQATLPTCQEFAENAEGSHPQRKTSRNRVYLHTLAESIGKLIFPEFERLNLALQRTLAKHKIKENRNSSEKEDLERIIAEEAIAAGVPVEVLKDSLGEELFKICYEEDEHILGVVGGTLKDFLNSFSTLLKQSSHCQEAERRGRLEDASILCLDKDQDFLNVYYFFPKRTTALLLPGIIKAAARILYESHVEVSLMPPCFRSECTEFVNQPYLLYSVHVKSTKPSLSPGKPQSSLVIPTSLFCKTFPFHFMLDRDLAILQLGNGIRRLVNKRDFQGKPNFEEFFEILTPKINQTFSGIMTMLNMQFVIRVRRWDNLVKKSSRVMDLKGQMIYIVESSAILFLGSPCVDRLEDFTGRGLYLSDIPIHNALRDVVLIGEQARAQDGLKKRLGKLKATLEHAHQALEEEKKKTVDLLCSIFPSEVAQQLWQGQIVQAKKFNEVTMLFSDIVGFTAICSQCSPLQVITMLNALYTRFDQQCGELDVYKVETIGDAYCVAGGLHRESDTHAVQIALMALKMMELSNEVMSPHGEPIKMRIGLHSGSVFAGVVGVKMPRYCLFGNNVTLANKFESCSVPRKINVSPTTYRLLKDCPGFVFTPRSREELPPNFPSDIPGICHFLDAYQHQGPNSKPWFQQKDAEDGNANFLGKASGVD
Put plainly: Activating action at the sGC enzyme in vitro (PPi detection, luciferase). Type of assay: biochemical.
Details: not given
The method, then: Soluble guanylate cyclase (sGC) converts on stimulation GTP into cGMP and pyrophosphate (PPi). PPi is detected with the aid of the assay described below. The signal produced in the assay increases as the reaction progresses and serves as a measure of the sGC enzyme activity under the given stimulation.
To carry out the assay, 29 μl of enzyme solution [0-10 nM soluble guanylate cyclase (prepared according to Honicka et al., J. Mol. Med. 77, 14-23 (1999)) in 50 mM TEA, 2 mM MgCl2, 0.1% BSA (fraction V), 0.005% Brij®, pH 7.5] are initially introduced into a microplate, and 1 μl of the substance to be tested (as a serially diluted solution in DMSO) is added. The mixture is incubated at room temperature for 10 min. Then 20 μl of detection mix [1.2 nM Firefly Luciferase (Photinus pyralis luciferase, Promega), 29 μM dehydroluciferin (prepared according to Bitler & McElroy, Arch. Biochem. Biophys. 72, 358 (1957)), 122 μM luciferin (Promega), 153 μM ATP (Sigma) and 0.4 mM DTT (Sigma) in 50 mM TEA, 2 mM MgCl2, 0.1% BSA (fraction V), 0.005% Brij®, pH 7.5] are added. The enzyme reaction is started by adding 20 μl of substrate solution [1.25 mM guanosine 5′-triphosphate (Sigma) in 50 mM TEA, 2 mM MgCl2, 0.1% BSA (fraction V), 0.005% Brij®, pH 7.5] and measured continuously in a luminometer. The extent of the stimulation by the substance to be tested can be determined relative to the signal of the unstimulated reaction.
The activation of heme-free guanylate cyclase is examined by addition of 25 μM of 1H-1,2,4-oxadiazolo[4,3-a]quinoxalin-1-one (ODQ) to the enzyme solution and subsequent incubation for 30 minutes and compared to the stimulation of the native enzyme.
As to `CC(CC(F)(F)F)C(C(=O)Nc1cccc(CC2(C(=O)O)CC2)c1)c1ccc(CN2N=C(c3ccccc3)OCC2=O)cc1` (single isomer, unassigned) [Example 160, 1-{3-[(5,5,5-trifluoro-3-methyl-2-{4-[(5-oxo-2-phenyl-5,6-dihydro-4H-1,3,4-oxadiazin-4-yl)methyl]phenyl}-pentanoyl)amino]benzyl}cyclopropanecarboxylic acid], the “MEC (minimum effective concentration), activating action at the sGC enzyme” value was found to be 3.4 nM.

The same assay, now with this note: read-out: EC50 (concentration at 50% of maximum efficacy), activating action at the sGC enzyme.
As for `CC(CC(F)(F)F)C(C(=O)Nc1cccc(CC2(C(=O)O)CC2)c1)c1ccc(CN2N=C(c3ccccc3)OCC2=O)cc1` (single isomer, unassigned) [Example 160, 1-{3-[(5,5,5-trifluoro-3-methyl-2-{4-[(5-oxo-2-phenyl-5,6-dihydro-4H-1,3,4-oxadiazin-4-yl)methyl]phenyl}-pentanoyl)amino]benzyl}cyclopropanecarboxylic acid], the EC50 came to 35 nM.

Another assay deals with T2, recombinant guanylate cyclase reporter cell line (Rattus norvegicus, UniProt P20595).
T2 construct: expressed in transfected cells; host or cells: CHO reporter cell line
T2 sequence (P20595 1-619): T1 sequence (P20595 1-619)
T2 sequence (P19686 1-690 partner): T1 sequence (P19686 1-690 partner)
Put plainly: sGC-activating activity in the CHO reporter cell in vitro. Type of assay: cell-based.
Details: not given
The protocol: The cellular action of the compounds according to the invention is determined at a recombinant guanylate cyclase reporter cell line, as described in F. Wunder et al., Anal. Biochem. 339, 104-112 (2005).
As to `O=C(O)c1ccc(CNC(=O)C(c2ccc(Cn3nc(-c4ccc(Cl)cc4)c4ccccc4c3=O)cc2)C2CCCC2)cc1` (racemic) [Example 1, 4-({[(4-{[4-(4-Chlorophenyl)-1-oxophthalazin-2(1H)-yl]methyl}phenyl)(cyclopentyl)acetyl]-amino}methyl)benzenecarboxylic acid], the “MEC (minimum effective concentration), sGC-activating activity in the CHO reporter cell” value (from here on “MEC … in the CHO reporter cell”) stood at 10 nM.

Take `O=C(O)c1ccc(CNC(=O)C(c2ccc(Cn3nc(-c4ccc(Cl)cc4)c4ccccc4c3=O)cc2)C2CCCC2)nc1` (racemic) [Example 11, 6-({[(4-{[4-(4-chlorophenyl)-1-oxophthalazin-2(1H)-yl]-methyl}phenyl)(cyclopentyl)acetyl]amino}methyl)-pyridine-3-carboxylic acid]: the “MEC … in the CHO reporter cell” value is 300 nM. `O=C(O)CCc1cccc(NC(=O)C(c2ccc(Cn3nnc4ccccc4c3=O)cc2)C2CCCC2)c1` (racemic) [Example 21, 3-{3-[(cyclopentyl{4-[(4-oxo-1,2,3-benzotriazin-3(4H)-yl)methyl]phenyl}acetyl)amino]phenyl}-propanoic acid]: the “MEC … in the CHO reporter cell” value is 30 nM. Still for that read-out and setting: next, `O=C(O)CCc1cccc(NC(=O)C(c2ccc(Cn3nc(-c4ccccc4)oc3=O)cc2)C2CCCC2)c1` (racemic) [Example 22]: 300 nM. On the same count and under the same terms, the same measure for `Cc1c(CCC(=O)O)cccc1NC(=O)C(c1ccc(CN2CCN(c3cccc(Cl)c3)C2=O)cc1)C1CCCC1` (racemic) [Example 26, 3-(3-{[(4-{[3-(3-chlorophenyl)-2-oxoimidazolidin-1-yl]methyl}phenyl)(cyclopentyl)acetyl]amino}-2-methylphenyl)propanoic acid]: 300 nM; for `Cc1c(CCC(=O)O)cccc1NC(=O)C(c1ccc(Cn2nnc3ccccc3c2=O)cc1)C1CCCC1` (racemic) [Example 29, 3-{3-[(cyclopentyl{4-[(4-oxo-1,2,3-benzotriazin-3(4H)-yl)methyl]phenyl}acetyl)amino]-2-methyl-phenyl}propanoic acid]: 30 nM; for `Cc1c(CCC(=O)O)cccc1NC(=O)C(c1ccc(Cn2nc(-c3ccccc3)oc2=O)cc1)C1CCCC1` (racemic) [Example 30, 3-{3-[(cyclopentyl{4-[(2-oxo-5-phenyl-1,3,4-oxadiazol-3(2H)-yl)methyl]phenyl}acetyl)amino]-2-methylphenyl}propanoic acid]: 30 nM. Still for that read-out and setting: the same measure for `CCC(C)C(C(=O)Nc1cccc(CCC(=O)O)c1)c1ccc(CN2N=C(c3ccccc3)OCC2=O)cc1` (single isomer, unassigned) [Example 62, 3-{3-[(3-Methyl-2-{4-[(5-oxo-2-phenyl-5,6-dihydro-4H-1,3,4-oxadiazin-4-yl)methyl]-phenyl}pentanoyl)amino]phenyl}propanoic acid]: 3 nM. In the case of `CC(C)C(C(=O)Nc1cccc(CCC(=O)O)c1)c1ccc(CN2N=C(c3ccccc3)OCC2=O)cc1` (single isomer, unassigned) [Example 105, 3-{3-[(3-mcthyl-2-{4-[(5-oxo-2-phcnyl-5,6-dihydro-4H-l,3,4-oxadiazin-4-yl)mcthyl]phenyl}butanoyl)-amino]phcnyl}propanoic acid], the “MEC … in the CHO reporter cell” value came out at 10 nM.

Turning to `CC(C)C(C(=O)Nc1ccc(CCC(=O)O)cc1)c1ccc(CN2N=C(c3ccccc3)OCC2=O)cc1` (single isomer, unassigned) [Example 106, 3-{4-[(3-mcthyl-2-{4-[(5-oxo-2-phcny1-5,6-dihydro-4H-1,3,4-oxadiazin-4-yl)mcthyl]phenyl}butanoyl)-amino]phcnyl}propanoic acid], the “MEC … in the CHO reporter cell” value was 10 nM.

For the compound `O=C(O)CC[C@H]1CC[C@H](NC(=O)C(c2ccc(CN3N=C(c4ccccc4)OCC3=O)cc2)C2CCCC2)CC1` (single isomer, unassigned) [Example 118, 3-{trans-4-[(cyclopcntyl{4-[(5-oxo-2-phcnyl-5,6-dihydro-4H-1,3,4-oxadiazin-4-yl)mcthyl]phcnyl}acetyl)-amino]cyclohcxyl}propanoic acid], the “MEC … in the CHO reporter cell” value worked out at 30 nM.

On to `CC(CC(F)(F)F)C(C(=O)Nc1cccc(CC2(C(=O)O)CC2)c1)c1ccc(CN2N=C(c3ccccc3)OCC2=O)cc1` (single isomer, unassigned) [Example 160, 1-{3-[(5,5,5-trifluoro-3-methyl-2-{4-[(5-oxo-2-phenyl-5,6-dihydro-4H-1,3,4-oxadiazin-4-yl)methyl]phenyl}-pentanoyl)amino]benzyl}cyclopropanecarboxylic acid], for which the “MEC … in the CHO reporter cell” value was determined as 30 nM. With `O=C(O)c1ccc(CNC(=O)C(c2ccc(CN3N=C(c4ccccc4)OCC3=O)cc2)C2CCCC2)cc1` (single isomer, unassigned; ent-4) [Example 38, ent-4-{[(Cyclopentyl{4-[(5-oxo-2-phenyl-5,6-dihydro-4H-1,3,4-oxadiazin-4-yl)methyl]phenyl}acetyl)amino]methyl}benzenecarboxylic acid], the “MEC … in the CHO reporter cell” value was 30 nM.

Turning to `COCC(C)C(C(=O)Nc1cccc(CCC(=O)O)c1C)c1ccc(CN2N=C(c3ccccc3)OCC2=O)cc1` (centres unmarked) [Example 3, 3-{3-[(4-Methoxy-3-methyl-2-{4-[(5-oxo-2-phenyl-5,6-dihydro-4H-1,3,4-oxadiazin-4-yl)-methyl]phenyl}butanoyl)amino]-2-methylphenyl}propanoic acid], the “MEC … in the CHO reporter cell” value was determined as 300 nM. Same read-out and setting: next, `O=C(O)CCc1ccc(Cl)c(NC(=O)C(c2ccc(CN3N=C(c4ccccc4)OCC3=O)cc2)C2CCCC2)c1` (centres unmarked) [Example 187, 3-{4-chloro-3-[(cyclopentyl{4-[(5-oxo-2-phenyl-5,6-dihydro-4H-1,3,4-oxadiazin-4-yl)methyl]-phenyl}acetyl)amino]phenyl}propanoic acid]: 1 nM.
